Reference: PubChem BioAssay AID328 (DTP/NCI, 2004)
“And” between values parts separate entries of the source, which are not always exact repeats. Equal values may be shown once. Inconclusive results and toxic doses are left out.

Test system: BDF1 mice, P388 leukemia ip, median survival T/C
Experiment: NCI In Vivo Anticancer Drug Screen. Data for tumor model P388 Leukemia (intraperitoneal) in B6D2F1 (BDF1) mice
Settings: endpoint: median survival time, higher = longer survival
How it was run: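 In tumour-bearing mice, survival after compound treatment is set against the vehicle group and given as a quotient.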

[1] = dose: 50.0 mg/kg/injection, schedule: Q04DX003 (ip), vehicle: saline
[2] = dose: 100.0 mg/kg/injection, schedule: Q04DX003 (ip), vehicle: saline
[3] = dose: 50.0 mg/kg/injection, schedule: Q01DX009 (ip), vehicle: saline with Tween-80
[4] = dose: 100.0 mg/kg/injection, schedule: Q01DX009 (ip), vehicle: saline with Tween-80
[5] = dose: 200.0 mg/kg/injection, schedule: Q01DX009 (ip), vehicle: saline with Tween-80
[6] = dose: 50.0 mg/kg/injection, schedule: Q01DX009 (ip), vehicle: saline
[7] = dose: 100.0 mg/kg/injection, schedule: Q01DX009 (ip), vehicle: saline
[8] = dose: 200.0 mg/kg/injection, schedule: Q04DX003 (ip), vehicle: saline
[9] = dose: 400.0 mg/kg/injection, schedule: Q01DX001 (ip), vehicle: saline with Tween-80
[10] = dose: 50.0 mg/kg/injection, schedule: Q01DX009 (ip), vehicle: Klucel (hydroxypropylcellulose) (HPC)
[11] = dose: 100.0 mg/kg/injection, schedule: Q04DX003 (ip), vehicle: Klucel (hydroxypropylcellulose) (HPC)
[12] = dose: 200.0 mg/kg/injection, schedule: Q04DX003 (ip), vehicle: Klucel (hydroxypropylcellulose) (HPC)
[13] = dose: 100.0 mg/kg/injection, schedule: Q01DX009 (ip), vehicle: Klucel (hydroxypropylcellulose) (HPC)
[14] = dose: 200.0 mg/kg/injection, schedule: Q01DX009 (ip), vehicle: Klucel (hydroxypropylcellulose) (HPC)
[15] = dose: 25.0 mg/kg/injection, schedule: Q01DX009 (ip), vehicle: saline
[16] = dose: 100.0 mg/kg/injection, schedule: Q01DX005 (ip), vehicle: saline with Tween-80
[17] = dose: 200.0 mg/kg/injection, schedule: Q01DX005 (ip), vehicle: saline with Tween-80

## Cc1cc(C)c(NC(=O)c2ccccc2Cl)c(C)c1
dose: 100.0 mg/kg/injection, schedule: Q04DX003 (ip), vehicle: saline with Tween-80
  T/C: 100 % of control
dose: 200.0 mg/kg/injection, schedule: Q04DX003 (ip), vehicle: saline with Tween-80
  T/C: 109 % of control
dose: 400.0 mg/kg/injection, schedule: Q04DX003 (ip), vehicle: saline with Tween-80
  T/C: 95 % of control

## NS(=O)(=O)Cc1ccccc1
dose: 25.0 mg/kg/injection, schedule: Q04DX003 (ip), vehicle: saline
  T/C: 100 % of control
[1]
  T/C: 100 % of control
[2]
  T/C: 100 % of control

## CP(O)(=S)C1CCCCC1 (centres undefined) (tested in a mixture with another compound)
dose: 50.0 mg/kg/injection, schedule: Q01DX005 (ip), vehicle: saline
  T/C: 94 % of control
dose: 100.0 mg/kg/injection, schedule: Q01DX005 (ip), vehicle: saline
  T/C: 91 % of control
dose: 200.0 mg/kg/injection, schedule: Q01DX005 (ip), vehicle: saline
  T/C: 90 % of control

## O=C(c1ccccc1)C1C(c2ccccc2)C2(CCCCC2=O)C(c2ccccc2)CC1(O)c1ccccc1 (centres undefined)
dose: 25.0 mg/kg/injection, schedule: Q01DX001 (ip), vehicle: Klucel (hydroxypropylcellulose) (HPC)
  T/C: 88 % of control

## NC(=NCCCC(NCc1ccccc1)C(=O)O)N[N+](=O)[O-] (centres undefined)
dose: 50.0 mg/kg/injection, schedule: Q04DX003 (ip), vehicle: saline + alcohol
  T/C: 103 % of control
dose: 100.0 mg/kg/injection, schedule: Q04DX003 (ip), vehicle: saline + alcohol
  T/C: 99 % of control
dose: 200.0 mg/kg/injection, schedule: Q04DX003 (ip), vehicle: saline + alcohol
  T/C: 94 % of control
dose: 400.0 mg/kg/injection, schedule: Q04DX003 (ip), vehicle: saline + alcohol
  T/C: 105 % of control

## c1ccc2c(c1)cc1c3nnnn3ncn21
[3]
  T/C: 106 % of control
[4]
  T/C: 104 % of control
[5]
  T/C: 89 % of control

## O=C(NC1CCCCC1)N(c1ccccc1)c1nnc(-c2cccc([N+](=O)[O-])c2)s1
[3]
  T/C: 104 % of control
[4]
  T/C: 95 % of control
[5]
  T/C: 115 % of control

## CC1CCCCN1CC(Cl)Cl (centres undefined)
[6]
  T/C: 122 % of control
[1]
  T/C: 109 % of control
[7]
  T/C: 150 % of control
[2]
  T/C: 104 % of control
[8]
  T/C: 122 % of control

## COC(=O)c1c(-c2ccccc2)c(-c2ccccc2)nn(-c2ccccc2)c1=O
[9]
  T/C: 87 % of control

## COc1ccc2nc(N)n(C(=O)c3ccccc3)c(=O)c2c1
dose: 100.0 mg/kg/injection, schedule: Q01DX001 (ip), vehicle: saline with Tween-80
  T/C: 101 % of control
dose: 200.0 mg/kg/injection, schedule: Q01DX001 (ip), vehicle: saline with Tween-80
  T/C: 109 % of control
[9]
  T/C: 109 % of control

## O=C1CSCC(=O)O1
[10]
  T/C: 105 % of control
dose: 50.0 mg/kg/injection, schedule: Q04DX003 (ip), vehicle: Klucel (hydroxypropylcellulose) (HPC)
  T/C: 95 % of control
[11]
  T/C: 95 % of control
[12]
  T/C: 109 % of control

## c1ccc(-c2oc3ccc4ccccc4c3c2-c2ccc(OCCN3CCCC3)cc2)cc1
dose: 10.0 mg/kg/injection, schedule: Q01DX009 (ip), vehicle: Klucel (hydroxypropylcellulose) (HPC)
  T/C: 105 % of control
dose: 20.0 mg/kg/injection, schedule: Q01DX009 (ip), vehicle: Klucel (hydroxypropylcellulose) (HPC)
  T/C: 95 % of control
dose: 40.0 mg/kg/injection, schedule: Q01DX009 (ip), vehicle: Klucel (hydroxypropylcellulose) (HPC)
  T/C: 105 % of control
dose: 80.0 mg/kg/injection, schedule: Q01DX009 (ip), vehicle: Klucel (hydroxypropylcellulose) (HPC)
  T/C: 100 % of control

## CN(C)P(=O)(N(C)C)N(C)C (tested in a mixture with another compound)
[10]
  T/C: 98 % of control
[13]
  T/C: 105 % of control
[14]
  T/C: 105 % of control

## CCOC(=O)CSc1c([N+](=O)[O-])c(C)nn1C
dose: 3.12 mg/kg/injection, schedule: Q04DX003 (ip), vehicle: water
  T/C: 110 % of control
dose: 6.25 mg/kg/injection, schedule: Q04DX003 (ip), vehicle: water
  T/C: 100 % of control and 106 % of control
dose: 12.5 mg/kg/injection, schedule: Q04DX003 (ip), vehicle: water
  T/C: 92 % of control and 104 % of control
dose: 25.0 mg/kg/injection, schedule: Q01DX009 (ip), vehicle: water
  T/C: 93 % of control
dose: 25.0 mg/kg/injection, schedule: Q04DX003 (ip), vehicle: water
  T/C: 88 % of control and 100 % of control
dose: 50.0 mg/kg/injection, schedule: Q01DX009 (ip), vehicle: water
  T/C: 90 % of control
dose: 50.0 mg/kg/injection, schedule: Q04DX003 (ip), vehicle: water
  T/C: 97 % of control and 100 % of control and 113 % of control
dose: 100.0 mg/kg/injection, schedule: Q01DX009 (ip), vehicle: water
  T/C: 93 % of control
dose: 100.0 mg/kg/injection, schedule: Q04DX003 (ip), vehicle: water
  T/C: 101 % of control and 104 % of control
dose: 200.0 mg/kg/injection, schedule: Q01DX009 (ip), vehicle: water
  T/C: 101 % of control
dose: 200.0 mg/kg/injection, schedule: Q04DX003 (ip), vehicle: water
  T/C: 109 % of control
dose: 400.0 mg/kg/injection, schedule: Q01DX009 (ip), vehicle: water
  T/C: 101 % of control
dose: 400.0 mg/kg/injection, schedule: Q04DX003 (ip), vehicle: water
  T/C: 103 % of control

## O=C(/C=C/c1ccccc1)N1CCOCC1
[1]
  T/C: 95 % of control
[2]
  T/C: 95 % of control

## Cc1ccc2c(c1)CCCN2C=O
[3]
  T/C: 104 % of control
[4]
  T/C: 109 % of control
[5]
  T/C: 123 % of control

## O=C(c1ccccc1)N(Nc1ccccc1)c1ccccc1
[13]
  T/C: 95 % of control
[11]
  T/C: 100 % of control
[14]
  T/C: 109 % of control
[12]
  T/C: 100 % of control
dose: 400.0 mg/kg/injection, schedule: Q01DX009 (ip), vehicle: Klucel (hydroxypropylcellulose) (HPC)
  T/C: 95 % of control
dose: 400.0 mg/kg/injection, schedule: Q04DX003 (ip), vehicle: Klucel (hydroxypropylcellulose) (HPC)
  T/C: 100 % of control

## O=C(CCl)c1ccc(O)c(O)c1
dose: 3.12 mg/kg/injection, schedule: Q01DX009 (ip), vehicle: saline with Tween-80
  T/C: 109 % of control
dose: 4.5 mg/kg/injection, schedule: Q04DX003 (ip), vehicle: saline with Tween-80
  T/C: 104 % of control
dose: 6.25 mg/kg/injection, schedule: Q01DX009 (ip), vehicle: saline with Tween-80
  T/C: 109 % of control
dose: 9.0 mg/kg/injection, schedule: Q04DX003 (ip), vehicle: saline with Tween-80
  T/C: 100 % of control
dose: 12.5 mg/kg/injection, schedule: Q01DX009 (ip), vehicle: Klucel (hydroxypropylcellulose) (HPC)
  T/C: 106 % of control and 120 % of control
dose: 12.5 mg/kg/injection, schedule: Q01DX009 (ip), vehicle: saline with Tween-80
  T/C: 122 % of control
dose: 40.0 mg/kg/injection, schedule: Q01DX001 (ip), vehicle: saline
  T/C: 118 % of control

## COc1ccc(/C=C/C(=O)c2ccc(OC)c(OC)c2)cc1O
[15]
  T/C: 108 % of control
[6]
  T/C: 101 % of control
[1]
  T/C: 107 % of control
[7]
  T/C: 106 % of control
[2]
  T/C: 110 % of control
dose: 200.0 mg/kg/injection, schedule: Q01DX009 (ip), vehicle: saline
  T/C: 90 % of control
[8]
  T/C: 107 % of control
dose: 400.0 mg/kg/injection, schedule: Q01DX009 (ip), vehicle: saline
  T/C: 99 % of control
dose: 400.0 mg/kg/injection, schedule: Q04DX003 (ip), vehicle: saline
  T/C: 124 % of control

## CC1(O)Cn2c(nc3nccnc32)S1 (centres undefined)
[15]
  T/C: 107 % of control
[6]
  T/C: 115 % of control
[1]
  T/C: 108 % of control
[2]
  T/C: 100 % of control

## O=C(O)CS(=O)c1ccc2c3c(cccc13)C(=O)c1ccccc1-2 (centres undefined)
dose: 50.0 mg/kg/injection, schedule: Q01DX005 (ip), vehicle: saline with Tween-80
  T/C: 87 % of control
[16]
  T/C: 94 % of control
[17]
  T/C: 94 % of control

## Cc1cc(N2CCOCC2)nc(N2CCOCC2)c1C#N
[16]
  T/C: 91 % of control
[17]
  T/C: 99 % of control
